{"source": "patent EP0006061A1", "about": "“Medicinal compound consisting of a derivative of cyclopentyl aldehyde” (INSTITUT DE RECHERCHES CHIMIQUES ET BIOLOGIQUES APPLIQUEES …, priority 1978, dated 1979)", "key": {"cobayes": {"tested_on": "cobayes", "experiment": "histamine aerosol bronchospasm (time to apnoea)", "format": "in vivo", "details": "0,1 mg/kg, aerosol for 10 min before histamine aerosol; controls 108 ± 18", "description": "Les essais pharmaceutiques qui ont été mis en oeuvre avec les produits des exemples 1 et 4, ont été résumés ci-après : • 1°/ essais avec l'exemple 1 • a/ activité bactériostatique L' α-(2-formyl-3-méthyl-cyclopentyl)-acétal- déhyde inhibe les bactéries Gram (+) et Gram (-). Les CMI (concentration minimale inhibitrice) sont les suivantes : 0,75 mg/ml sur Staphylococcus aureus Londres, 1,2 mg/ml sur Escherichia coli, et 1,5 mg/ml sur Proteus • b/ activité antispasmodique : Les DE-50 du produit de l'exemple 1 ont été déterminés • (i) in vitro sur iléon isolé de cobaye vis à vis de l'histamine : DE - 50 = 50 γ/ml; • (ii) in vivo sur l'animal vivant selon la méthode de KONZETT & ROESLLER : DE - 50 = 2,6 mg/kg par administration i.v. • c/ activité antianaphylactique : Des cobayes mâles sont sensibilisés par deux injections de 0,5 ml d'une solution d'albumine à 2 g/1, à deux jours d'intervalle. Quatre semaines aprës,le choc anaphylactique mortel est provoqué par injection i.v. de 0,2 ml d'une solution aqueuse d'ovalbumine à 2 g/1. Les produits à tester sont administrés 30 mn avant (administration i.p.) ou en même temps (administration i.v.) que l'injection provoquant ledit choc anaphylactique. Les résultats sont donnés dans le tableau I pour le produit de l'exemple 1 et la Prométhazine en tant que produit de référence : [formula] • 2°/ essais avec le produit de l'exemple 4 (constitué par un mélange de 87 % en poids d'isomère \"cis-trans\" et 13 % en poids d'isomère \"trans-cis). • a/ activité bactériostatigue : Le produit de l'exemple 4 inhibe les bactéries Gram (+) et Gram (-). […]"}, "rat femelle": {"tested_on": "rat femelle", "experiment": "anti-inflammatory activity, carrageenin oedema test", "format": "in vivo", "details": "dose 200 µg per rat", "description": "L'activité anti-inflammatoire de l'exemple 4 a été étudiée chez le rat femelle (de poids 100 g) selon le test de l'oedème à la carragéenine.Les résultats sont donnés dans le tableau IV où l'Indométacine est utilisée comme produit de référence : […]"}}}
{"smiles": "CC(CN1c2ccccc2Sc2ccccc21)N(C)C", "note": "(centres unmarked) [Prométhazine, reference compound]", "values": [{"measurement": "Apparition de l'apnée (en secondes)", "setting": "cobayes", "value": ">600", "unit": "secondes"}]}
{"smiles": "COc1ccc2c(c1)c(CC(=O)O)c(C)n2C(=O)c1ccc(Cl)cc1", "note": "[Indometacine, reference compound]", "values": [{"measurement": "inhibition par rapport aux témoins", "setting": "rat femelle", "value": 57, "unit": "%"}]}
